Test results: BindingDB's records for doi:10.1016/j.bmcl.2007.04.051 (Eli Lilly, 2007)
pKi: −log10 of the molar value.

Columns and labels:
Estrogen receptor = target: T1, Estrogen receptor (Homo sapiens, UniProt P03372); assay: Estrogen Receptor Binding Assay.; settings: pH 7.5; 22 °C
T1 sequence (P03372 whole entry): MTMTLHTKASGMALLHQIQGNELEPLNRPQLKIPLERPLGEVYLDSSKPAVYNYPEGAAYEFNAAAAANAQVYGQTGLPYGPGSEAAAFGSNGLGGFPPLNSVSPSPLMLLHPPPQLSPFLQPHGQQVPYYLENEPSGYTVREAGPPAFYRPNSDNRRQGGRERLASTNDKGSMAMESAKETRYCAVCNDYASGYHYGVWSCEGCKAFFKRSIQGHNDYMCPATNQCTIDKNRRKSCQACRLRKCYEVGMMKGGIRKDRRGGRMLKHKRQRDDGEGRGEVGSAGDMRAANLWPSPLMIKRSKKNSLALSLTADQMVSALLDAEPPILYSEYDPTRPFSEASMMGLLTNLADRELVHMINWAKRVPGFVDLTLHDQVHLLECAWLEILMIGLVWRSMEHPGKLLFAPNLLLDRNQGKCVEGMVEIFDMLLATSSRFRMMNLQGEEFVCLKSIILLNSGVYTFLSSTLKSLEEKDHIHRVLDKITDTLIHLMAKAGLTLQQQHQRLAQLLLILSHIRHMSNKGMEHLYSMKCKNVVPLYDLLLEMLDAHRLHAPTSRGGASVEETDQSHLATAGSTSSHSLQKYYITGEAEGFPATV
Procedure: (§1) The binding affinities were determined by a competitive radiometric binding assay using [3H]estradiol as tracer. The Kd for 3H-estradiol was determined by saturation binding to ER receptors. The IC50 values for compounds were converted to Ki using Cheng-Prusoff equation.

Estrogen receptor beta = Estrogen receptor beta (Homo sapiens, UniProt Q92731); assay: Estrogen Receptor Binding Assay.; settings: pH 7.5; 22 °C
Sequence of Estrogen receptor beta (Q92731 whole entry): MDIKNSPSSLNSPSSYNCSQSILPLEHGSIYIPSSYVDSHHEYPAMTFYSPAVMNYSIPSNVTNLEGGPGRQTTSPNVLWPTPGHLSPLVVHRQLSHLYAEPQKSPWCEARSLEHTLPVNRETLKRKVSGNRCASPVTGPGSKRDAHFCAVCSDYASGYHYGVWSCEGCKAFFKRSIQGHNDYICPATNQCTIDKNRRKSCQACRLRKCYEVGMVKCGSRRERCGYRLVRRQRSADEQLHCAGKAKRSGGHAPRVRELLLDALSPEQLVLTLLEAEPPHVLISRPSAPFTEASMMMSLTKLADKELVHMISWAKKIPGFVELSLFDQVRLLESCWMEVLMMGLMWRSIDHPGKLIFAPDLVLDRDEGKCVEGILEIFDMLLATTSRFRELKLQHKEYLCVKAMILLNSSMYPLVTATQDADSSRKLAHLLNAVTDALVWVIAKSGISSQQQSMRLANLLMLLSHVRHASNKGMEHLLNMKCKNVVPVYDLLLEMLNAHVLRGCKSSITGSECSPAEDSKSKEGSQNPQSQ
Procedure: as §1

Compound | pKi (Estrogen receptor) | pKi (Estrogen receptor beta)
Oc1cccc([C@@H]2Oc3ccc(O)cc3[C@@H]3CCC[C@@H]32)c1 (racemic) [(2R,6S,7R)-7-(3-hydroxyphenyl)-8-oxatricyclo[7.4.0.0^{2,6}]trideca-1(9),10,12-trien-12-ol] | 7.19 | 
Oc1ccc([C@@H]2Oc3cccc(O)c3[C@@H]3CCC[C@@H]32)cc1 [racemic mixture] | 9.46 | 9.18
Oc1ccc([C@@H]2CCc3cc(O)ccc3O2)cc1 [racemic mixture] | 6.90 | 
Oc1ccc([C@@H]2Oc3cc(O)ccc3[C@@H]3CCC[C@@H]32)cc1 [racemic mixture] | 7.39 | 7.72
Oc1ccc([C@@H]2Oc3ccc(O)cc3[C@@H]3CCCCC[C@@H]32)cc1 [racemic mixture] | 8.21 | 9.06
Oc1ccc([C@@H]2Oc3ccccc3[C@@H]3CCC[C@@H]32)cc1 (racemic) [4-[(2R,6S,7R)-8-oxatricyclo[7.4.0.0^{2,6}]trideca-1(9),10,12-trien-7-yl]phenol] | 7.40 | 7.66
Oc1ccc([C@@H]2Oc3ccc(O)cc3[C@@H]3CCCC[C@@H]32)cc1 [racemic mixture] | 8.54 | 9.20
Oc1ccc2c(c1)[C@@H]1CCC[C@@H]1[C@H](c1ccccc1)O2 [racemic mixture] | 6.57 | 
